Numbering of substitutions follows the chain as printed.
Legend:
Ayr1 [1] = target: T1, Ayr1 (Saccharomyces cerevisiae, UniProt P40471, G20A/G22A); experiment: planar lipid bilayer electrophysiology, reconstituted channel; type: biochemical; details: 1 mM NADPH; symmetrical 250 mM KCl, pH 7.0; activator of channel gating; NADPH-binding motif mutant, effect mostly abolished
T1 construct: ORF with His10 tag, expressed in E. coli BL21(DE3), purified in urea, reconstituted into liposomes / planar lipid bilayer; 33 kD
T1 sequence (P40471 1-297 G20A/G22A): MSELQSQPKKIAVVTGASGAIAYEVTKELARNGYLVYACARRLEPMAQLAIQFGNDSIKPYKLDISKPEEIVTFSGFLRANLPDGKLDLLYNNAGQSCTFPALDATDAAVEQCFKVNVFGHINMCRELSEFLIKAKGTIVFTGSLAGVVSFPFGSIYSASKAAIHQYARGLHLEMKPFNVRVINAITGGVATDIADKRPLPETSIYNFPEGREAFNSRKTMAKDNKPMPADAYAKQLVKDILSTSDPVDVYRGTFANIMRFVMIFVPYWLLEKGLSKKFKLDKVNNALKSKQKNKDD

Ayr1 [2] = target: T2, Ayr1 (Saccharomyces cerevisiae, UniProt P40471); experiment: as above; type: biochemical; details: 1 mM NADPH; symmetrical 250 mM KCl, pH 7.0; activator of channel gating
T2 construct: ORF with His10 tag, expressed in E. coli BL21(DE3), purified in urea, reconstituted into liposomes / planar lipid bilayer; 33 kD
T2 sequence (P40471 1-297): T1 sequence (P40471 1-297 G20A/G22A) with A20G, A22G

In the case of `NC(=O)C1=CN([C@@H]2O[C@H](COP(=O)(O)OP(=O)(O)OC[C@H]3O[C@@H](n4cnc5c(N)ncnc54)[C@H](OP(=O)(O)O)[C@@H]3O)[C@@H](O)[C@H]2O)C=CC1` [NADPH], the “planar lipid bilayer electrophysiology, reconstituted channel” value (Ayr1 [1]) was “the effect of NAPDH was mostly abolished, and no increase of the gating frequency was observed” and the “planar lipid bilayer electrophysiology, reconstituted channel” value (Ayr1 [2]) was “NADPH strongly stimulated the frequency of gating between the distinct states”.

Source: PMC5674900, “Identification of new channels by systematic analysis of the mitochondrial outer membrane” (The Journal of Cell Biology, 2017)
